Columns and labels:
[1] = design: species or system human; details: in vivo
[2] = design: species or system human; details: in vivo; remark: listed apart in the source
[3] = design: species or system human; details: in vivo, iv
[4] = design: species or system human; details: in vivo; remark: listed apart in the source
[5] = human, in vivo

(18S,21S,24S,27S,30S)-27-(2-carboxyethyl)-21-(carboxymethyl)-30-((2S,3R,4R,5R,6S)-6-((2-(4-(3-[F18]fluoropropyl)-1H-1,2,3-triazol-1-yl)acetamido)methyl)-3,4,5-trihydroxytetrahydro-2H-pyran-2-carboxamido)-24-isopropyl-18-methyl-17,20,23,26,29-pentaoxo-4,7,10,13-tetraoxa-16,19,22,25,28-pentaazadotriacontane-1,32-dioic acid [18F-CP-18]
Normalized number of disintegrations, Brain [1]: 0.0089±0.0038 MBq-h/MBq administered | Normalized number of disintegrations, Breasts [1]: 0.015±0.0047 MBq-h/MBq administered | Normalized number of disintegrations, Heart Contents [1]: 0.026±0.0036 MBq-h/MBq administered | Normalized number of disintegrations, Kidneys [1]: 0.059±0.017 MBq-h/MBq administered | Normalized number of disintegrations, Liver [1]: 0.064±0.024 MBq-h/MBq administered | Normalized number of disintegrations, Remainder [1]: 0.82±0.14 MBq-h/MBq administered | Normalized number of disintegrations, Spleen [1]: 0.0090±0.0024 MBq-h/MBq administered | Normalized number of disintegrations, Testes [1]: 0.0057±0.0017 MBq-h/MBq administered | Normalized number of disintegrations, Urinary Bladder Wall (1.0-hr) [1]: 0.29±0.033 MBq-h/MBq administered | Normalized number of disintegrations, Urinary Bladder Wall (4.8-hr) [1]: 1.1±0.13 MBq-h/MBq administered | parent tracer in urine [2]: 21% | clearance half-time of activity from blood pool / plasma ([3]; human): ~ 30 minutes | percentage of plasma-borne activity in the form of 18F-CP-18 [3]: 99% | Estimated organ dose per unit administered activity, Brain [4]: 2.4±0.6 μGy/MBq | Estimated organ dose per unit administered activity, Breasts [4]: 7.7±3.6 μGy/MBq | Estimated organ dose per unit administered activity, Heart Wall [4]: 10±0.8 μGy/MBq | Estimated organ dose per unit administered activity, Kidneys [4]: 39±10 μGy/MBq | Estimated organ dose per unit administered activity, Thymus [4]: 4.8±0.7 μGy/MBq | Estimated organ dose per unit administered activity, Thyroid [4]: 4.2±0.7 μGy/MBq | adult female phantom doses, higher than adult male phantom [4]: 20–34% | bladder uptake (percent administered activity) [5]: 16-27% | crossing of the blood-brain barrier [5]: did not appreciably cross the blood-brain barrier | kidney uptake (percent administered activity) [5]: 3.5-11% | liver uptake (percent administered activity) [5]: 3.2-5.7% | mean SUV, bladder [5]: approximately 65 | mean SUV, heart [5]: ~1.5 | mean SUV, kidneys [5]: ~6 | mean SUV, liver [5]: ~1.5 | renal system (kidneys and bladder together) uptake [5]: 22-31%
